Assay results taken from the NIST ThermoML archive (doi:10.1016/j.jct.2004.11.005).
± gives the expanded uncertainty stated by the source.

Test: activity coefficient (dimensionless); of the first substance listed, at infinite dilution; xn = mol fraction of the nth substance listed
Settings: Liquid, x1 = 0

Compound | activity coefficient (270.02 K) | activity coefficient (280 K) | activity coefficient (290 K) | activity coefficient (300 K) | activity coefficient (310 K) | activity coefficient (330 K) | activity coefficient (310.01 K) | activity coefficient (320 K) | activity coefficient (269.99 K) | further results
C=CC=C [1,3-butadiene] + CCC(O)CC | 3.03 ± 0.09 | 2.92 ± 0.09 | 2.75 ± 0.08 | 2.63 ± 0.08 | – | – | – | – | – | activity coefficient (259.98 K): 3.18 ± 0.1
C=CC=C [1,3-butadiene] + CCCC(C)O | – | – | 2.68 ± 0.08 | – | 2.47 ± 0.07 | 2.27 ± 0.07 | – | – | – | activity coefficient (249.94 K): 3.01 ± 0.09; activity coefficient (269.98 K): 2.89 ± 0.09
C=CC=C [1,3-butadiene] + CCCCCO | – | – | 2.5 ± 0.08 | – | 2.46 ± 0.07 | 2.33 ± 0.07 | – | – | – | activity coefficient (249.97 K): 2.5 ± 0.08; activity coefficient (270.01 K): 2.51 ± 0.08
C=CCC [1-butene] + CCC(O)CC | 3.16 ± 0.09 | 3.05 ± 0.09 | 2.96 ± 0.09 | 2.86 ± 0.09 | – | 2.49 ± 0.07 | 2.72 ± 0.08 | 2.61 ± 0.08 | – | activity coefficient (259.96 K): 3.27 ± 0.1
C=CCC [1-butene] + CCCC(C)O | – | – | 2.86 ± 0.09 | – | 2.69 ± 0.08 | 2.5 ± 0.08 | – | – | 3.03 ± 0.09 | activity coefficient (249.94 K): 3.04 ± 0.09
C=CCC [1-butene] + CCCCCO | – | – | 2.82 ± 0.08 | – | 2.78 ± 0.08 | 2.7 ± 0.08 | – | – | 2.87 ± 0.09 | activity coefficient (249.96 K): 2.88 ± 0.09
C/C=C/C [(E)-2-butene] + CCC(O)CC | 3.06 ± 0.09 | 2.96 ± 0.09 | 2.88 ± 0.09 | 2.77 ± 0.08 | – | – | 2.67 ± 0.08 | 2.54 ± 0.08 | – | activity coefficient (259.96 K): 3.12 ± 0.09; activity coefficient (330.01 K): 2.5 ± 0.08
C/C=C/C [(E)-2-butene] + CCCC(C)O | – | – | 2.81 ± 0.08 | – | 2.65 ± 0.08 | 2.49 ± 0.07 | – | – | 2.91 ± 0.09 | activity coefficient (249.94 K): 2.9 ± 0.09
C/C=C/C [(E)-2-butene] + CCCCCO | – | – | 2.76 ± 0.08 | – | 2.76 ± 0.08 | 2.69 ± 0.08 | – | – | 2.8 ± 0.08 | activity coefficient (249.96 K): 2.8 ± 0.08
CCCC [butane] + CCC(O)CC | 3.4 ± 0.1 | 3.36 ± 0.1 | 3.26 ± 0.1 | 3.15 ± 0.09 | – | – | 3.04 ± 0.09 | 2.92 ± 0.09 | – | activity coefficient (259.98 K): 3.48 ± 0.1; activity coefficient (330.01 K): 2.79 ± 0.08

Continued, in another order:

activity coefficient (270.02 K) | activity coefficient (280 K) | activity coefficient (290 K) | activity coefficient (300 K) | activity coefficient (310 K) | activity coefficient (330 K) | activity coefficient (310.01 K) | activity coefficient (320 K) | activity coefficient (269.99 K) | Compound | further results
3.62 ± 0.11 | 3.53 ± 0.11 | 3.45 ± 0.1 | 3.35 ± 0.1 | – | – | 3.22 ± 0.1 | 3.09 ± 0.09 | – | CC(C)C [2-methylpropane] + CCC(O)CC | activity coefficient (259.96 K): 3.66 ± 0.11; activity coefficient (330.01 K): 2.98 ± 0.09
– | – | 3.49 ± 0.1 | – | 3.3 ± 0.1 | 3.1 ± 0.09 | – | – | – | CC(C)C [2-methylpropane] + CCCC(C)O | activity coefficient (250.01 K): 3.66 ± 0.11; activity coefficient (269.96 K): 3.61 ± 0.11
– | – | 3.56 ± 0.11 | – | 3.51 ± 0.11 | 3.4 ± 0.1 | – | – | – | CC(C)C [2-methylpropane] + CCCCCO | activity coefficient (249.97 K): 3.65 ± 0.11; activity coefficient (270.01 K): 3.59 ± 0.11
3.15 ± 0.09 | 3.04 ± 0.09 | 2.93 ± 0.09 | 2.82 ± 0.08 | – | – | 2.69 ± 0.08 | 2.56 ± 0.08 | – | C=C(C)C [2-methylpropene] + CCC(O)CC | activity coefficient (259.96 K): 3.25 ± 0.1; activity coefficient (330.01 K): 2.43 ± 0.07
– | – | 2.82 ± 0.08 | – | 2.63 ± 0.08 | 2.45 ± 0.07 | – | – | – | C=C(C)C [2-methylpropene] + CCCC(C)O | activity coefficient (249.94 K): 3.1 ± 0.09; activity coefficient (269.98 K): 2.99 ± 0.09
– | – | 2.82 ± 0.08 | – | 2.76 ± 0.08 | 2.63 ± 0.08 | – | – | – | C=C(C)C [2-methylpropene] + CCCCCO | activity coefficient (249.97 K): 2.86 ± 0.09; activity coefficient (270.01 K): 2.84 ± 0.09
– | – | 3.24 ± 0.1 | – | 3.11 ± 0.09 | 2.94 ± 0.09 | – | – | – | CCCC [butane] + CCCC(C)O | activity coefficient (249.93 K): 3.4 ± 0.1; activity coefficient (269.96 K): 3.38 ± 0.1
– | – | 3.31 ± 0.1 | – | 3.27 ± 0.1 | 3.19 ± 0.1 | – | – | – | CCCC [butane] + CCCCCO | activity coefficient (249.97 K): 3.43 ± 0.1; activity coefficient (270.01 K): 3.33 ± 0.1
3.21 ± 0.1 | 3.14 ± 0.09 | 3.09 ± 0.09 | 3.01 ± 0.09 | – | 2.72 ± 0.08 | 2.9 ± 0.09 | 2.81 ± 0.08 | – | CCC [propane] + CCC(O)CC | activity coefficient (259.96 K): 3.27 ± 0.1
– | – | 3.08 ± 0.09 | – | 3.05 ± 0.09 | 3 ± 0.09 | – | – | 3.07 ± 0.09 | CCC [propane] + CCCCCO | activity coefficient (249.96 K): 3.08 ± 0.09
2.87 ± 0.09 | 2.82 ± 0.08 | 2.74 ± 0.08 | 2.63 ± 0.08 | – | – | 2.53 ± 0.08 | 2.42 ± 0.07 | – | C=CC [propene] + CCC(O)CC | activity coefficient (259.94 K): 2.97 ± 0.09; activity coefficient (330.01 K): 2.32 ± 0.07
– | – | 2.66 ± 0.08 | – | 2.53 ± 0.08 | 2.37 ± 0.07 | – | – | 2.77 ± 0.08 | C=CC [propene] + CCCC(C)O | activity coefficient (249.93 K): 2.79 ± 0.08
– | – | 2.6 ± 0.08 | – | 2.59 ± 0.08 | 2.51 ± 0.08 | – | – | 2.59 ± 0.08 | C=CC [propene] + CCCCCO | activity coefficient (249.96 K): 2.59 ± 0.08
